# Experimental data: patent US20170072012A1, “USE OF GSMTX4 TO REDUCE ISCHEMIA REPERFUSION INJURY” (priority 2014, published 2017)
# Like-named read-outs stand apart in the source and are kept apart here. Where a SMILES comes first, the peptide text is derived from it. Bridges are numbered along the chain shown (N, C = ends). [ ]: non-standard residue; d: D form.
# Experiments:
# [1] = tested on: ischemic reperfusion injury in mouse heart; format: in vivo, C57B1/6J mice; conditions: for myocardial infarction (infarct area / AAR): 4 h reperfusion, vehicle 16.5±1.2%
# Description: Acute GsMTx4-D treatment: All animal protocols in this study were approved by the Institutional Animal Care and Use Committee of the University at Buffalo-State University of New York. C57B1/6J mice were anesthetized with 80 mg/kg of sodium pentobarbital (Sigma, St. Louis, Mo.) via intraperitoneal injection (IP), intubated and ventilated with a respirator (Harvard apparatus, Holliston, Mass., USA) 17. Upon absence of a pedal reflex, surgery was performed under a stereomicroscope. Core body temperature was maintained at 37° C. with a heating pad. After a left lateral thoracotomy, the left anterior descending coronary artery (LAD) was occluded just underneath the left atrium for 20 min with an 8-0 nylon suture. […] A small piece of gauze was used to prevent arterial injury. After 20 min the ligature was removed and the tissue was reperfused for up to 4 h before euthanizing. Three different doses of GsMTx4-D (0.1, 1, 10 mg/kg), verapamil (0.4 mg/kg) or vehicle (saline 50 μL) were administered via tail vein injection 5 min before reperfusion (during induced ischemia). ECGs confirmed the hallmark ischemic ST segment elevation during coronary occlusion (AD Instruments, Colorado Springs, CO, USA). Each group included 5 independent experiments. At the conclusion of the study, mice were euthanized by IP injection of 270 mg/kg pentobarbital. GsMTx4-D pretreatment: To evaluate the effect of GsMTx4-D pretreatment, GsMTx4-D (50 mg/kg) or vehicle (saline 50 μL) were administered via IP injection once daily for 2 days prior to surgery. Ischemia was then elicited with the same 20 min coronary occlusion followed by 24 h reperfusion. Following reperfusion, the chest was closed in layers. A drop of lidocaine was put on the suture site and the mouse was slowly weaned off the ventilator when they resumed spontaneous breathing. The mouse was returned to its cage and kept warm and medicated for pain (buprenorphine). Each group included 5 independent experiments.
# To measure infarct size, hearts were harvested and excised for dual staining at the conclusion of reperfusion. The non-necrotic tissue in the ischemic region was stained red with 2,3,5- triphenyltetrazolium (TTC) and non-ischemic regions were stained blue with Evans blue. The hearts were fixed and sectioned into 1 mm slices, photographed with a Lexica MZ95 microscope and analyzed with NIH ImageJ software (http://imagej.nih.gov/ij/) 19. The infarct size was calculated as the ratio of the percentage of myocardial necrosis to the ischemic Area At Risk (AAR).
# To test whether GsMTx4-D protected the heart against reperfusion injury, we first tested three different doses of the peptide. The positive control was verapamil, a voltage-gated calcium channel inhibitor with established cardioprotective effects on IRI. C57B1/6 mice were subjected to 20 min occlusion of the LAD followed by 4 hours of reperfusion. Three different concentrations of GsMTx4-D (0.1, 1 and 10 mg/kg), verapamil (0.4 mg/kg), or vehicle (saline) were administered through tail vein injection 5 min before reperfusion. […] At the conclusion of reperfusion, the hearts were stained with TTC and Evans Blue (FIG. 2A). […] The verapamil group also had lower infarction size (14.0±0.4%), but the difference wasn't statistically significant. […] To evaluate whether pretreatment with GsMTx4-D could also protect the heart from I/R injury, GsMTx4-D (50 mg/kg) or vehicle (saline 50 μL) were administered daily via IP injection, for 2 days prior to I/R surgery. As before, ischemia was induced from 20 min LAD occlusion, but reperfusion was allowed to continue for 24 hrs. The chest was closed in layers, and animals were weaned off the ventilator when they resumed spontaneous breathing. […] The ratios of AAR to total myocardial area between the two groups were equal as determined by TTC and Evans Blue staining (FIG. 3A and B). […]
# [2] = tested on: I/R induced arrhythmias in mouse heart; experiment: Heart rhythm analysis (ECG) during reperfusion, I/R induced arrhythmia; format: in vivo, C57B1/6J mice; conditions: for total incidence of arrhythmias (ventricular and supraventricular premature beats): vehicle 14.9±4.5; for mean heart rate during the 15 min of reperfusion: vehicle 162.9±13.2
# Description: During reperfusion we continuously recorded ECGs, from which mean heart rate, PR, QRS, and QT intervals were derived for each animal. We evaluated the incidence of arrhythmias by counting the incidences of arrhythmias including ventricular and supraventricular premature beats by summing the number of episodes based on limb lead recordings for 15 min after reperfusion. Ventricular premature beats are considered more severe. Each group contained 5 to 7 independent experiments (vehicle n=7, verapamil n=6, GsMTx4-D 0.1mg/kg n=5, 1 mg/kg n=6 and 10 mg/kg n=5).
# Heart rate and rhythm were monitored by ECG to confirm the hallmark ischemic ST-segment elevation during coronary occlusion, and the gradually increasing inversion of the T-wave during reperfusion (FIG. 4A). Since generation of arrhythmias is a good indicator of the level of I/R damage, we counted ventricular and supraventricular premature beats occurring within 15 min of reperfusion (FIG. 4B). No ventricular tachycardia was observed during 20 min ischemia and 15 min reperfusion in the mouse heart. […] Considering that ventricular premature beats are indicative of more severe damage, the incidence of this specific arrhythmia was analyzed separately (FIG. 4 D). […] There was no difference in mean heart rate before ischemia (FIG. 4E). […] There was no difference in PR, QRS or QT intervals after treatment in all groups (data not shown).
# [3] = Single-dose pharmacokinetic study, plasma and heart concentration by LC/MS/MS; format: in vivo, CD-1 mice; conditions: based on the PK analysis
smiles,measurement,setting,value
"CC(C)C[C@H]1NC(=O)[C@H](NC(=O)CN)CSSC[C@H]2NC(=O)[C@H]3CSSC[C@H](C(=O)N[C@H](CC(N)=O)C(=O)N[C@H](Cc4ccccc4)C(=O)N[C@H](CO)C(=O)N[C@H](Cc4ccccc4)C(N)=O)NC(=O)[C@@H](CC(C)C)NC(=O)[C@@H](CCCCN)NC(=O)[C@@H](Cc4ccccc4)NC(=O)[C@@H](CC(C)C)NC(=O)[C@@H](CCCCN)NC(=O)[C@@H](CO)NC(=O)[C@@H](CSSC[C@@H](NC(=O)[C@@H](CCCCN)NC(=O)[C@@H](Cc4c[nH]c5ccccc45)NC(=O)[C@@H](Cc4c[nH]c5ccccc45)NC(=O)[C@@H](Cc4ccccc4)NC(=O)[C@@H](CCC(=O)O)NC1=O)C(=O)N[C@H](CC(N)=O)C(=O)N1CCC[C@@H]1C(=O)N[C@H](CC(N)=O)C(=O)N[C@H](CC(=O)O)C(=O)N[C@H](CC(=O)O)C(=O)N[C@H](CCCCN)C(=O)N3)NC(=O)[C@@H](CCCCN)NC(=O)[C@@H](CC(C)C)NC(=O)[C@@H](CCCCN)NC(=O)[C@H]1CCCN1C(=O)[C@@H](CCCNC(=N)N)NC2=O [GsMTx4-D] (H-G[dC][dL][dE][dF][dW][dW][dK][dC][dN][dP][dN][dD][dD][dK][dC][dC][dR][dP][dK][dL][dK][dC][dS][dK][dL][dF][dK][dL][dC][dN][dF][dS][dF]-NH2; disulfide 2-17, 9-23, 16-30 (inferred); N-terminus and C-terminus assumed)",myocardial infarction (infarct area / AAR),[1]; 1.0 mg/kg tail vein 5 min before reperfusion,9.9±1.3%
same,myocardial infarction (infarct area / AAR),[1]; 10 mg/kg tail vein 5 min before reperfusion,12.4±0.5%
same,side-effects from pretreatment,[1]; 50 mg/kg IP daily for 2 days,did not detect any side-effects
same,infarction size (infarct area / AAR),"[1]; 50 mg/kg IP daily for 2 days prior to surgery, 24 h reperfusion, vehicle 16.8±1.1%",10.5±0.7%
same,death or morbidity in acute I/R treatment,"[1]; 0.1, 1 and 10 mg/kg tail vein injection",no death or morbidity observed
same,toxicity in the heart during these studies,[1]; acute IV and IP pretreatment I/R studies,no overt signs of toxicity
same,total incidence of arrhythmias (ventricular and supraventricular premature beats),"[2]; 0.1 mg/kg IV 5 min before reperfusion, not significantly different",10.4±6 incidence/15 min reperfusion
same,total incidence of arrhythmias (ventricular and supraventricular premature beats),[2]; 1 mg/kg IV 5 min before reperfusion,2.3±0.7 incidence/15 min reperfusion
same,mean heart rate during the 15 min of reperfusion,[2]; 1 mg/kg IV,255.7±33.4
same,ventricular premature beats,"[2]; 1 mg/kg IV, within 15 min of reperfusion, vehicle 5.7±1.8",1.3±0.4
same,total incidence of arrhythmias (ventricular and supraventricular premature beats),[2]; 10 mg/kg IV 5 min before reperfusion,2.2±1.0 incidence/15 min reperfusion
same,mean heart rate during the 15 min of reperfusion,[2]; 10 mg/kg IV,286.1±25.0
same,predicted concentration in the heart at the time of reperfusion,[3]; after the 1 mg/kg IV injection during ischemia,< 0.5 µM
same,predicted concentration in the heart at the time of reperfusion,[3]; after two IP pretreatments (50 mg/kg),1 to 2 µM
